Test results taken from article PMC10983001, “Development of Cytotoxic GW7604-Zeise’s Salt Conjugates as Multitarget Compounds with Selectivity for Estrogen Receptor- Positive Tumor Cells” (Journal of Medicinal Chemistry, 2024).

What was measured:
SKBr3 cells = assay: Cellular uptake (platinum by HR-CS-AAS), SKBr3; assay type: cell-based, human; details: 8 h
Experimental: (§1) In order to reach the DNA, the complexes must first pass through the cell membrane and penetrate into the nuclei. Therefore, the cellular uptake kinetics of GW7604-Alk-PtCl3 complexes were studied using the example of GW7604-Pent-PtCl3. This complex and Cisplatin, respectively, were incubated at a concentration of 20 μM with MCF-7 or SKBr3 cells. After various time points [i.e., 0 (3 min), 0.5, 1, 2, 4, and 8 h], cell pellets were prepared, and the platinum content was quantified by high-resolution continuum source atomic absorption spectrometry (HR-CS-AAS).[52]
After thawing of the cell/nuclei pellets, they were resuspended in ultrapure water (Siemens LaboStar, Günzburg, Germany; 300 μL) and lyzed with a sonotrode (Bandelin Sonoplus, Berlin, Germany; parameters 20 s, 9 cycles, 80% power). Graphite furnace (GF) AAS was used to quantify the lysates concerning their content of platinum (λ = 265.9450 nm). For this purpose, a contrAA 700 High-Resolution-Continous Source AAS (Analytik Jena, Jena, Germany) was employed, while atomization took place by electrothermal heating of graphite tubes with an inserted platform (Analytik Jena, Jena, Germany). A time–temperature program reported in the literature[25] was followed with minor adjustments. The liquid samples kept in 0.5 mL polystyrene vials (Gesellschaft für Analysentechnik, Salzwedel, Germany) were injected directly into the pyrolytically coated tubes using an MPE 60 autosampler (Analytik Jena, Jena, Germany). Throughout the measurements, argon (Alphagaz 1, 99.999%, Air Liquide, Düsseldorf, Germany) served as the purge and protective gas. The spectrometer was monitored with the ASpect CS software, version 2.3.1.0 (Analytik Jena, Jena, Germany). For all runs, the mean integrated absorbance was determined after three injections of each standard or sample. Calibration was performed by an appropriate dilution of a solution of Cisplatin (Sigma-Aldrich, Taufkirchen, Germany) obtaining five standards (2–10 μg/L, R^2 ≥ 0.982). Each cell/nuclei lysate was quantified concerning its protein content following the method of Bradford[71] in order to express the uptake as the amount of compound (pmol) in the lysate relative to its protein mass (mg). Therefore, solutions of Albumin fraction V (Carl Roth, Karlsruhe, Germany) diluted with ultrapure water were adduced for the calibration (six standards, 50–300 μg/mL, R^2 ≥ 0.996). […] All standards and lysates were measured in duplicate. After incubating for 5 min at rt, the absorbance (λ = 595 nm) was read on a microplate reader (Tecan Safire 2, Männedorf, Switzerland). […]

MCF-7 cells = assay: Cellular uptake (platinum by HR-CS-AAS), MCF-7; assay type: cell-based, human; details: MCF-7, 20 μM
Experimental: as §1
After thawing of the cell/nuclei pellets, they were resuspended in ultrapure water (Siemens LaboStar, Günzburg, Germany; 300 μL) and lyzed with a sonotrode (Bandelin Sonoplus, Berlin, Germany; parameters 20 s, 9 cycles, 80% power). Graphite furnace (GF) AAS was used to quantify the lysates concerning their content of platinum (λ = 265.9450 nm). For this purpose, a contrAA 700 High-Resolution-Continous Source AAS (Analytik Jena, Jena, Germany) was employed, while atomization took place by electrothermal heating of graphite tubes with an inserted platform (Analytik Jena, Jena, Germany). A time–temperature program reported in the literature[25] was followed with minor adjustments. The liquid samples kept in 0.5 mL polystyrene vials (Gesellschaft für Analysentechnik, Salzwedel, Germany) were injected directly into the pyrolytically coated tubes using an MPE 60 autosampler (Analytik Jena, Jena, Germany). Throughout the measurements, argon (Alphagaz 1, 99.999%, Air Liquide, Düsseldorf, Germany) served as the purge and protective gas. The spectrometer was monitored with the ASpect CS software, version 2.3.1.0 (Analytik Jena, Jena, Germany). For all runs, the mean integrated absorbance was determined after three injections of each standard or sample. Calibration was performed by an appropriate dilution of a solution of Cisplatin (Sigma-Aldrich, Taufkirchen, Germany) obtaining five standards (2–10 μg/L, R^2 ≥ 0.982). Each cell/nuclei lysate was quantified concerning its protein content following the method of Bradford[71] in order to express the uptake as the amount of compound (pmol) in the lysate relative to its protein mass (mg). Therefore, solutions of Albumin fraction V (Carl Roth, Karlsruhe, Germany) diluted with ultrapure water were adduced for the calibration (six standards, 50–300 μg/mL, R^2 ≥ 0.996). A volume of 20 μL of the Albumin standards or the lysates was added to a 96-well plate (Sarstedt, Nürmbrecht, Germany) and supplemented with 200 μL of Bradford’s reagent (Roti-Nanoquant, Carl Roth, Karlsruhe, Germany; diluted 5-fold with ultrapure water). All standards and lysates were measured in duplicate. After incubating for 5 min at rt, the absorbance (λ = 595 nm) was read on a microplate reader (Tecan Safire 2, Männedorf, Switzerland). The cellular/nuclear uptake (pmol complex/mg protein) is given as the mean ± SD of 2 independent experiments.
For cellular uptake studies, 1.0 × 10^6 of MCF-7 and SKBr3 cells in their exponential growing phase were seeded into 25 cm^2 cell culture flasks and incubated for 24 h under a humidified atmosphere (5% CO2/95% air) at 37 °C. Stock solutions of the platinum complexes (GW7604-Pent-PtCl3, Cisplatin) in DMF were freshly prepared and diluted with complete DMEM containing 10% FCS to the desired concentration [final DMF concentration of 0.1% (v/v), final complex concentration of 20 μM]. The medium in the cell culture flasks was replaced with 3 mL of fresh cell culture medium containing the compounds, and the flasks were incubated under a humidified atmosphere at 37 °C for 3 min, 0.5, 1, 2, 4, and 8 h. Cell pellets were prepared by removing the medium, washing two times with phosphate-buffered saline (PBS), and detaching the cells with Accutase (GE Healthcare, BioSciences, Chicago, IL, USA). Subsequently, cells were pelleted by centrifugation (4 °C, 380g, 3 min). […]

[1] = tested on: 5′-guanosine monophosphate (5′-GMP); assay: Reaction with 5′-GMP (ESI-HR-MS); assay type: binding; details: 100 μM, MeOH/water 80/20, 5 min
Experimental: Thereto, GW7604-Pent-PtCl3 was incubated in a 1:1 ratio with 5′-GMP in a MeOH/water mixture [80/20, (v/v)], and the reaction products were identified by ESI-HR-MS after 5 min and 24 h.
GW7604-Pent-PtCl3 dissolved in MeOH was combined with an aqueous solution of 5′-GMP (disodium salt) to get an [80/20 (v/v)] solution with a complex concentration of 1 mM and a complex/5′-GMP proportion of 1/1.1. The mixture was diluted %1/10 (v/v)] with MeOH/water [80/20 (v/v)], reaching a final complex concentration of 100 μM, and ESI-HR-MS spectra were recorded after 5 min and 24 h. The obtained spectra were analyzed with MestreNova v14.

TSA-201 cells = assay: MTT assay of metabolic activity, noncancerous TSA-201; assay type: cell-based, human; details: 72 h
Experimental: The GW7604-Alk-PtCl3 complexes (with exclusion of GW7604-Prop-PtCl3) were investigated for cytotoxic effects in SKBr3 (ER-negative, COX-2-positive, Figure 6), MCF-7 (ERα-positive, COX-negative, Figure 6), and noncancerous TSA-201 (human embryonal kidney) cells at concentrations of 10–30 μM using an established MTT (3-(4,5-dimethylthiazol-2-yl)-2,5-diphenyltetrazolium bromide) assay.[60],[69]
After incubation for 72 h, the amounts of surviving, metabolically active cells were quantified based on their ability to transform the water-soluble yellow dye MTT to a purple formazan, which can be analyzed by UV–vis spectroscopy.
The exponentially growing cells were seeded at a density of 1750 (MCF-7), 2000 (SKBr3), and 1250 (TSA-201) cells/well into clear flat-bottom 96-well plates in triplicate. Following 24 h of incubation at 37 °C in a humidified atmosphere (5% CO2/95% air), the compounds [freshly prepared stock solutions in DMF, diluted with DMEM to the desired concentration (final DMF concentration of 0.1% (v/v))] were added to reach the indicated concentrations. After another 72 h of incubation, the cellular metabolic activity was measured employing an MTT assay. By adding predissolved MTT reagent in PBS at a final concentration of 0.5 mg/mL, the metabolic activity can be determined via an enzymatic conversion to a purple formazan salt. After 3 h, the medium was aspirated, and 200 μL of DMSO was added to dissolve the formed formazan crystals. The absorbance was measured at 570 and 690 nm (turbidity assessment) using an EnSpire plate reader (PerkinElmer, Waltham, MA, USA). Solvent-treated cells without a compound served as the positive control. Metabolic activity was calculated by the following equation [drawing 1]

Compound: CCC(=C(c1ccc(O)cc1)c1ccc(C=CC(=O)OCCC[CH]2[CH2][Pt-]2([Cl])([Cl])[Cl])cc1)c1ccccc1.[K+] (mixture of isomers) [GW7604-Pent-PtCl3, Potassium trichlorido[η^2-(pent-4-en-1-yl (E)-3-(4-((E/Z)-1-(4-hydroxyphenyl)-2-phenylbut-1-en-1-yl)phenyl)acrylate)]platinate(II)]
- platinum amount in SKBr3 relative to MCF-7 cells (SKBr3 cells; 20 μM): about one-twelfth
- intracellular platinum amount (SKBr3 cells; SKBr3, 20 μM): 67 pmol/mg
- intracellular platinum amount (MCF-7 cells; 0.5 h): 130 pmol/mg
- intracellular platinum amount (MCF-7 cells; 1 h): 265 pmol/mg
- intracellular platinum amount (MCF-7 cells; 2 h): 371 pmol/mg
- intracellular platinum amount (MCF-7 cells; 4 h): 659 pmol/mg
- intracellular platinum amount (MCF-7 cells; 8 h): 818 pmol/mg
- adduct formation with 5′-GMP [1]: 5′-GMP-platinum adducts were present
- IC50 (TSA-201 cells; MTT, read-out: IC50 TSA-210): > 30 µM
- decrease of cell viability (TSA-201 cells; TSA-201, 30 μM): about 20%
